Assay results reported in ChEMBL document CHEMBL1201862, “PubChem BioAssay data set” (2004).
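The compound was tested at five concentrations on cells cultured in 96-well plates, with a 48-hour exposure period. GI50 marks 50% less growth.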 Active and inactive are the calls of the source. Rule as the data show it: active = GI50 up to about 1.1 µM and inactive = higher.

Columns and labels:
Assay in all cases: NCI anticancer screen, dose series, 48 h
[1] = test system: SK-MEL-28
[2] = test system: HOP-92
[3] = test system: CAKI-1
[4] = test system: SF-295
[5] = test system: OVCAR-3
[6] = test system: T47D
[7] = test system: SNB-19
[8] = test system: MDA-MB-231
[9] = test system: SW-620
[10] = test system: CCRF-CEM
[11] = test system: Malme-3M
[12] = test system: SK-MEL-2
[13] = test system: ACHN
[14] = test system: A498
[15] = test system: HT-29
[16] = test system: 786-0
[17] = test system: NCI-H23
[18] = test system: SN12C
[19] = test system: HL-60
[20] = test system: HCC 2998

SMILES | GI50 [1] | GI50 [2] | GI50 [3] | GI50 [4] | GI50 [5] | GI50 [6] | GI50 [7] | GI50 [8] | GI50 [9] | GI50 [10] | GI50 [11] | GI50 [12] | GI50 [13] | GI50 [14] | GI50 [15] | GI50 [16] | GI50 [17] | GI50 [18] | GI50 [19] | GI50 [20]
Cc1nc2ccc(S(=O)(=O)O)cc2c(=O)n1-c1ccc(C(=O)NN2C(=O)C(Cl)C2c2ccccc2O)cc1 (stereo unspecified) | > 100 µM (inactive) | > 100 µM (inactive) | > 100 µM (inactive) | > 100 µM (inactive) | > 100 µM (inactive) | > 100 µM (inactive) | > 100 µM (inactive) | > 100 µM (inactive) | > 100 µM (inactive) | > 100 µM (inactive) | > 100 µM (inactive) | > 100 µM (inactive) | > 100 µM (inactive) | > 100 µM (inactive) | > 100 µM (inactive) | > 100 µM (inactive) | > 100 µM (inactive) | > 100 µM (inactive) | > 100 µM (inactive) | –
Cc1cc2c(C)cc(=O)[nH]c2cc1N | > 100 µM (inactive) | > 100 µM (inactive) | > 100 µM (inactive) | > 100 µM (inactive) | > 100 µM (inactive) | > 100 µM (inactive) | > 100 µM (inactive) | 46.9 µM (inactive) | > 100 µM (inactive) | > 100 µM (inactive) | – | – | > 100 µM (inactive) | > 100 µM (inactive) | 81.1 µM (inactive) | > 100 µM (inactive) | > 100 µM (inactive) | > 100 µM (inactive) | – | 61.4 µM (inactive)
CCN(C(=O)N[C@@H](CC(C)C)C(=O)NCC(=O)OC)c1ccccc1 | 38.3 µM (inactive) | > 100 µM (inactive) | > 100 µM (inactive) | > 100 µM (inactive) | > 100 µM (inactive) | > 100 µM (inactive) | > 100 µM (inactive) | > 100 µM (inactive) | > 100 µM (inactive) | > 100 µM (inactive) | 18 µM (inactive) | 61.4 µM (inactive) | > 100 µM (inactive) | – | > 100 µM (inactive) | > 100 µM (inactive) | > 100 µM (inactive) | > 100 µM (inactive) | – | > 100 µM (inactive)
CC(C)=CCNc1ncnc2c1c(C#N)cn2C1OC(CO)C(O)C1O (stereo unspecified) | > 100 µM (inactive) | 24.3 µM (inactive) | 73.8 µM (inactive) | > 100 µM (inactive) | 3.66 µM (inactive) | 0.0386 µM (active) | > 53.8 µM (inactive) | 33.7 µM (inactive) | 10 µM (inactive) | 3.85 µM (inactive) | > 77.6 µM (inactive) | 39.7 µM (inactive) | 9.82 µM (inactive) | 24 µM (inactive) | 12.3 µM (inactive) | > 100 µM (inactive) | > 56.5 µM (inactive) | 12.7 µM (inactive) | 9.12 µM (inactive) | –
CCOC(=O)C(C(=S)Nc1ccccc1)c1nn2c(=O)cc(C)nc2s1 (stereo unspecified) | 21.1 µM (inactive) | 16.4 µM (inactive) | 20.1 µM (inactive) | 32.4 µM (inactive) | 24.5 µM (inactive) | 25.5 µM (inactive) | 35.6 µM (inactive) | 31.8 µM (inactive) | 46.7 µM (inactive) | 33.8 µM (inactive) | 22.9 µM (inactive) | 36.2 µM (inactive) | 20.5 µM (inactive) | – | 19.3 µM (inactive) | 39.8 µM (inactive) | 35.6 µM (inactive) | 36.7 µM (inactive) | 20.5 µM (inactive) | 25.1 µM (inactive)
Cc1ccc(/N=C2N=C(Cl)/C(=C\c3ccco3)N\2)cc1 | > 100 µM (inactive) | > 100 µM (inactive) | > 100 µM (inactive) | > 100 µM (inactive) | > 100 µM (inactive) | > 100 µM (inactive) | > 100 µM (inactive) | > 100 µM (inactive) | > 100 µM (inactive) | > 100 µM (inactive) | > 100 µM (inactive) | > 100 µM (inactive) | > 100 µM (inactive) | > 100 µM (inactive) | > 100 µM (inactive) | > 100 µM (inactive) | > 100 µM (inactive) | > 100 µM (inactive) | > 100 µM (inactive) | –
CC1(C)N[PH]2(Nc3ccccc3O2)OC1=O | 86.9 µM (inactive) | – | 66.2 µM (inactive) | 24.7 µM (inactive) | > 100 µM (inactive) | > 100 µM (inactive) | > 100 µM (inactive) | > 100 µM (inactive) | 42.7 µM (inactive) | 41.2 µM (inactive) | 38.4 µM (inactive) | – | 42.3 µM (inactive) | > 100 µM (inactive) | > 100 µM (inactive) | > 100 µM (inactive) | 67.9 µM (inactive) | > 100 µM (inactive) | 44.3 µM (inactive) | > 100 µM (inactive)
COc1ccc(-c2nc(N(C)C)c3ccccc3n2)cc1 | 14.9 µM (inactive) | 12.4 µM (inactive) | 14 µM (inactive) | 14.2 µM (inactive) | – | 10.8 µM (inactive) | 17.7 µM (inactive) | 28.4 µM (inactive) | 9.48 µM (inactive) | – | 16.8 µM (inactive) | 20.5 µM (inactive) | 7.64 µM (inactive) | – | 5.51 µM (inactive) | 10.9 µM (inactive) | 16 µM (inactive) | 7.89 µM (inactive) | 12.4 µM (inactive) | 6 µM (inactive)
O=C(O)c1nnsc1COCc1ccccc1 | > 100 µM (inactive) | > 100 µM (inactive) | > 100 µM (inactive) | > 100 µM (inactive) | > 100 µM (inactive) | > 100 µM (inactive) | > 100 µM (inactive) | > 100 µM (inactive) | > 100 µM (inactive) | > 100 µM (inactive) | > 100 µM (inactive) | > 100 µM (inactive) | > 100 µM (inactive) | > 100 µM (inactive) | > 100 µM (inactive) | > 100 µM (inactive) | > 100 µM (inactive) | > 100 µM (inactive) | – | –
CCN1C(=O)C(=C/C=C/c2ccc(N(CC)CC)cc2)C(=O)N(CC)C1=S | > 100 µM (inactive) | > 100 µM (inactive) | > 100 µM (inactive) | > 100 µM (inactive) | 18 µM (inactive) | > 100 µM (inactive) | > 100 µM (inactive) | > 100 µM (inactive) | > 100 µM (inactive) | 32.4 µM (inactive) | – | 68.5 µM (inactive) | > 100 µM (inactive) | – | > 100 µM (inactive) | > 100 µM (inactive) | > 100 µM (inactive) | > 100 µM (inactive) | 23.6 µM (inactive) | > 100 µM (inactive)
N#Cc1ccc(C(O)C(F)(F)c2nc3ccccc3o2)cc1 (stereo unspecified) | > 100 µM (inactive) | 53.3 µM (inactive) | 31 µM (inactive) | 41.8 µM (inactive) | – | 37.2 µM (inactive) | > 100 µM (inactive) | 18.9 µM (inactive) | > 100 µM (inactive) | 45.5 µM (inactive) | – | > 100 µM (inactive) | 83.9 µM (inactive) | – | 81.3 µM (inactive) | 84.1 µM (inactive) | > 100 µM (inactive) | – | 43.6 µM (inactive) | > 100 µM (inactive)
CN(C)c1ccc(/C=C2\CCCCCC2=O)cc1 | > 100 µM (inactive) | – | > 100 µM (inactive) | > 100 µM (inactive) | 71.1 µM (inactive) | 38.5 µM (inactive) | > 100 µM (inactive) | 32.7 µM (inactive) | > 100 µM (inactive) | > 100 µM (inactive) | > 100 µM (inactive) | > 100 µM (inactive) | 58.7 µM (inactive) | > 100 µM (inactive) | > 100 µM (inactive) | 87.1 µM (inactive) | – | > 100 µM (inactive) | > 100 µM (inactive) | > 100 µM (inactive)
O=C(O)/C=C(/CC(=O)O)C(=O)O | 21.2 µM (inactive) | – | 20.6 µM (inactive) | 18.1 µM (inactive) | 15.7 µM (inactive) | 20.2 µM (inactive) | 22.2 µM (inactive) | 21.3 µM (inactive) | 19 µM (inactive) | 13.6 µM (inactive) | 18.7 µM (inactive) | 19.5 µM (inactive) | 18.1 µM (inactive) | 16.3 µM (inactive) | 21.8 µM (inactive) | 17.5 µM (inactive) | 23.2 µM (inactive) | 19.4 µM (inactive) | 21 µM (inactive) | 30.8 µM (inactive)
CC(C)c1ccc2nc3ccc(C(=O)NCCN(C)C)cn3c(=O)c2c1 | 16.5 µM (inactive) | – | 23.1 µM (inactive) | 10.9 µM (inactive) | 29.2 µM (inactive) | 19.1 µM (inactive) | 35 µM (inactive) | 15 µM (inactive) | 14.7 µM (inactive) | 14.9 µM (inactive) | 3.37 µM (inactive) | – | 27.5 µM (inactive) | 14 µM (inactive) | 7.74 µM (inactive) | 14.6 µM (inactive) | 15.5 µM (inactive) | 14.8 µM (inactive) | 16.3 µM (inactive) | 14.1 µM (inactive)
CNc1ccccc1S(=O)(=O)c1ccccc1[N+](=O)[O-] | 91 µM (inactive) | – | – | 80.2 µM (inactive) | 68.4 µM (inactive) | 71.1 µM (inactive) | 74 µM (inactive) | > 100 µM (inactive) | > 100 µM (inactive) | 43.5 µM (inactive) | 99.8 µM (inactive) | 88.3 µM (inactive) | 56.6 µM (inactive) | > 100 µM (inactive) | 93.8 µM (inactive) | > 100 µM (inactive) | 44.6 µM (inactive) | 92.7 µM (inactive) | 40 µM (inactive) | > 100 µM (inactive)
